According to patent US10227344B2, “CK2 inhibitors, compositions and methods thereof” (Polaris Pharmaceuticals, Inc., priority 2016, dated 2019):

What was measured:
Format in all cases: cell-based
H1975 = assay: Cancer cell panel, cell viability (resazurin): NSCLC, H1975; conditions: 72 hours, labelled drug combined with Example 3
Procedure: (§1) Cells were plated in 96-well plates and treated for 72 hours with a serially diluted CK2 inhibitor or anti-cancer drug or their combination. The suspension cell lines were treated right after plating, while the adherent cells were allowed to attach overnight prior to the start of the treatment.
(§2) Cell viability was determined by adding resazurin to cell cultures and measuring fluorescence with a plate reader. Relative cell viability was calculated by dividing the cell viability signal from a test sample by that of a non-treated control. […] Bliss Independence and Highest Single Agent models were used to determine if there is synergy, additivity or antagonism between the CK2 inhibitor and an anti-cancer drug.

HL60 = assay: Cancer cell panel, cell viability (resazurin): Leukemia, HL60; conditions: 72 hours, labelled drug combined with Example 3
LoVo = assay: Cancer cell panel, cell viability (resazurin): Colon, LoVo; conditions: 72 hours, labelled drug combined with Example 3
Procedure: as §1, §2

HCT116 = assay: Cancer cell panel, cell viability (resazurin): Colon, HCT116; conditions: 72 hours, labelled drug combined with Example 3
Procedure: as §1, §2

ZR-75-1 = assay: Cancer cell panel, cell viability (resazurin): Breast, ZR-75-1; conditions: ZR-75-1 (Breast), 72 hours; labelled drug combined with Example 3
SKOV-3 = assay: Cancer cell panel, cell viability (resazurin): Ovarian, SKOV-3; conditions: SKOV-3 (Ovarian), 72 hours; labelled drug combined with Example 3
LnCap = assay: Cancer cell panel, cell viability (resazurin): Prostate, LnCap; conditions: 72 hours, labelled drug combined with Example 3
BT-474 = assay: Cancer cell panel, cell viability (resazurin): Breast, BT-474; conditions: BT-474 (Breast), 72 hours; labelled drug combined with Example 3
MDA-MB-157 = assay: Cancer cell panel, cell viability (resazurin): Breast, MDA-MB-157; conditions: MDA-MB-157 (Breast), 72 hours; labelled drug combined with Example 3
Procedure: as §1, §2

BxPC3 = assay: Cancer cell panel, cell viability (resazurin): Pancreatic, BxPC3; conditions: 72 hours, labelled drug combined with Example 3
A375 = assay: Cancer cell panel, cell viability (resazurin): Melanoma, A375; conditions: 72 hours, labelled drug combined with Example 3
Procedure: as §1, §2

H1299 = assay: Cancer cell panel, cell viability (resazurin): NSCLC, H1299; conditions: 72 hours, labelled drug combined with Example 3
Procedure: as §1, §2

786-O = assay: Cancer cell panel, cell viability (resazurin): Renal, 786-O; conditions: 786-O (Renal), 72 hours; labelled drug combined with Example 3
Procedure: as §1, §2

A549 = assay: Cancer cell panel, cell viability (resazurin): NSCLC, A549; conditions: 72 hours, labelled drug combined with Example 3
Procedure: as §1, §2

MeWO = assay: Cancer cell panel, cell viability (resazurin): Melanoma, MeWO; conditions: 72 hours, labelled drug combined with Example 3
H460 = assay: Cancer cell panel, cell viability (resazurin): NSCLC, H460; conditions: 72 hours, labelled drug combined with Example 3
SK-MEL-3 = assay: Cancer cell panel, cell viability (resazurin): Melanoma, SK-MEL-3; conditions: SK-MEL-3 (Melanoma), 72 hours; labelled drug combined with Example 3
Ramos = assay: Cancer cell panel, cell viability (resazurin): Burkitt's Lymphoma, Ramos; conditions: 72 hours, labelled drug combined with Example 3
NAMALWA = assay: Cancer cell panel, cell viability (resazurin): Burkitt's Lymphoma, NAMALWA; conditions: 72 hours, labelled drug combined with Example 3
SK-MEL-24 = assay: Cancer cell panel, cell viability (resazurin): Melanoma, SK-MEL-24; conditions: SK-MEL-24 (Melanoma), 72 hours; labelled drug combined with Example 3
WM-115 = assay: Cancer cell panel, cell viability (resazurin): Melanoma, WM-115; conditions: WM-115 (Melanoma), 72 hours; labelled drug combined with Example 3
Daudi = assay: Cancer cell panel, cell viability (resazurin): Burkitt's Lymphoma, Daudi; conditions: 72 hours, labelled drug combined with Example 3
Raji = assay: Cancer cell panel, cell viability (resazurin): Burkitt's Lymphoma, Raji; conditions: 72 hours, labelled drug combined with Example 3
Procedure: as §1, §2

U266 = assay: Cancer cell panel, cell viability (resazurin): multiple myeloma, U266; conditions: 72 hours, labelled drug combined with Example 3
DLD-1 = assay: Cancer cell panel, cell viability (resazurin): Colon, DLD-1; conditions: DLD-1 (Colon), 72 hours; labelled drug combined with Example 3
Procedure: as §1, §2

RPMI8226 = assay: Cancer cell panel, cell viability (resazurin): multiple myeloma, RPMI8226; conditions: 72 hours, labelled drug combined with Example 3
MOLT4 = assay: Cancer cell panel, cell viability (resazurin): Leukemia, MOLT4; conditions: 72 hours, labelled drug combined with Example 3
Procedure: as §1, §2

Caov-3 = assay: Cancer cell panel, cell viability (resazurin): Ovarian, Caov-3; conditions: Caov-3 (Ovarian), 72 hours; labelled drug combined with Example 3
K562 = assay: Cancer cell panel, cell viability (resazurin): Leukemia, K562; conditions: 72 hours, labelled drug combined with Example 3
H23 = assay: Cancer cell panel, cell viability (resazurin): NSCLC, H23; conditions: 72 hours, labelled drug combined with Example 3
Colo205 = assay: Cancer cell panel, cell viability (resazurin): Colon, Colo205; conditions: 72 hours, labelled drug combined with Example 3

## CC[C@]1(O)C[C@@H]2CN(CCc3c([nH]c4ccccc34)[C@@](C(=O)OC)(c3cc4c(cc3OC)N(C)[C@H]3[C@@](O)(C(=O)OC)[C@H](OC(C)=O)[C@]5(CC)C=CCN6CC[C@]43[C@@H]65)C2)C1 [Vinblastine, vinblastine]
H1975
  synergy, additivity or antagonism of the combination of Example 3 with the anti-cancer drug: + (Additive relative to each agent alone (CI = 0.9-1 by Bliss Independence Model and <0.9 by Highest Single Agent Model))
HL60
  synergy, additivity or antagonism of the combination of Example 3 with the anti-cancer drug: + + (Slight synergy relative to each agent alone (CI = 0.75-0.9 by Bliss Independence Model))
LoVo
  synergy, additivity or antagonism of the combination of Example 3 with the anti-cancer drug: + (Additive relative to each agent alone (CI = 0.9-1 by Bliss Independence Model and <0.9 by Highest Single Agent Model))
HCT116
  synergy, additivity or antagonism of the combination of Example 3 with the anti-cancer drug: + (Additive relative to each agent alone (CI = 0.9-1 by Bliss Independence Model and <0.9 by Highest Single Agent Model))
ZR-75-1
  synergy, additivity or antagonism of the combination of Example 3 with the anti-cancer drug: + (Additive relative to each agent alone (CI = 0.9-1 by Bliss Independence Model and <0.9 by Highest Single Agent Model))
SKOV-3
  synergy, additivity or antagonism of the combination of Example 3 with the anti-cancer drug: + (Additive relative to each agent alone (CI = 0.9-1 by Bliss Independence Model and <0.9 by Highest Single Agent Model))
LnCap
  synergy, additivity or antagonism of the combination of Example 3 with the anti-cancer drug: + (Additive relative to each agent alone (CI = 0.9-1 by Bliss Independence Model and <0.9 by Highest Single Agent Model))
BT-474
  synergy, additivity or antagonism of the combination of Example 3 with the anti-cancer drug: + (Additive relative to each agent alone (CI = 0.9-1 by Bliss Independence Model and <0.9 by Highest Single Agent Model))
MDA-MB-157
  synergy, additivity or antagonism of the combination of Example 3 with the anti-cancer drug: + + (Slight synergy relative to each agent alone (CI = 0.75-0.9 by Bliss Independence Model))
BxPC3
  synergy, additivity or antagonism of the combination of Example 3 with the anti-cancer drug: + + + (Synergy relative to each agent alone (CI = 0.4-0.74 by Bliss Independence Model))
A375
  synergy, additivity or antagonism of the combination of Example 3 with the anti-cancer drug: + (Additive relative to each agent alone (CI = 0.9-1 by Bliss Independence Model and <0.9 by Highest Single Agent Model))
H1299
  synergy, additivity or antagonism of the combination of Example 3 with the anti-cancer drug: + (Additive relative to each agent alone (CI = 0.9-1 by Bliss Independence Model and <0.9 by Highest Single Agent Model))
786-O
  synergy, additivity or antagonism of the combination of Example 3 with the anti-cancer drug: + + + (Synergy relative to each agent alone (CI = 0.4-0.74 by Bliss Independence Model))
A549
  synergy, additivity or antagonism of the combination of Example 3 with the anti-cancer drug: + + + (Synergy relative to each agent alone (CI = 0.4-0.74 by Bliss Independence Model))
MeWO
  synergy, additivity or antagonism of the combination of Example 3 with the anti-cancer drug: + (Additive relative to each agent alone (CI = 0.9-1 by Bliss Independence Model and <0.9 by Highest Single Agent Model))
H460
  synergy, additivity or antagonism of the combination of Example 3 with the anti-cancer drug: + (Additive relative to each agent alone (CI = 0.9-1 by Bliss Independence Model and <0.9 by Highest Single Agent Model))
SK-MEL-3
  synergy, additivity or antagonism of the combination of Example 3 with the anti-cancer drug: + (Additive relative to each agent alone (CI = 0.9-1 by Bliss Independence Model and <0.9 by Highest Single Agent Model))
Ramos
  synergy, additivity or antagonism of the combination of Example 3 with the anti-cancer drug: + (Additive relative to each agent alone (CI = 0.9-1 by Bliss Independence Model and <0.9 by Highest Single Agent Model))
NAMALWA
  synergy, additivity or antagonism of the combination of Example 3 with the anti-cancer drug: + (Additive relative to each agent alone (CI = 0.9-1 by Bliss Independence Model and <0.9 by Highest Single Agent Model))
SK-MEL-24
  synergy, additivity or antagonism of the combination of Example 3 with the anti-cancer drug: + (Additive relative to each agent alone (CI = 0.9-1 by Bliss Independence Model and <0.9 by Highest Single Agent Model))
WM-115
  synergy, additivity or antagonism of the combination of Example 3 with the anti-cancer drug: + (Additive relative to each agent alone (CI = 0.9-1 by Bliss Independence Model and <0.9 by Highest Single Agent Model))
Daudi
  synergy, additivity or antagonism of the combination of Example 3 with the anti-cancer drug: + (Additive relative to each agent alone (CI = 0.9-1 by Bliss Independence Model and <0.9 by Highest Single Agent Model))
Raji
  synergy, additivity or antagonism of the combination of Example 3 with the anti-cancer drug: + (Additive relative to each agent alone (CI = 0.9-1 by Bliss Independence Model and <0.9 by Highest Single Agent Model))
U266
  synergy, additivity or antagonism of the combination of Example 3 with the anti-cancer drug: + (Additive relative to each agent alone (CI = 0.9-1 by Bliss Independence Model and <0.9 by Highest Single Agent Model))
DLD-1
  synergy, additivity or antagonism of the combination of Example 3 with the anti-cancer drug: + + + + (Strong synergy relative to each agent alone (CI < 0.4 by Bliss Independence Model))
RPMI8226
  synergy, additivity or antagonism of the combination of Example 3 with the anti-cancer drug: + (Additive relative to each agent alone (CI = 0.9-1 by Bliss Independence Model and <0.9 by Highest Single Agent Model))
MOLT4
  synergy, additivity or antagonism of the combination of Example 3 with the anti-cancer drug: − (Slightly antagonistic relative to each agent alone (CI = 1.1-1.2 by Highest Single Agent Model))
Caov-3
  synergy, additivity or antagonism of the combination of Example 3 with the anti-cancer drug: + (Additive relative to each agent alone (CI = 0.9-1 by Bliss Independence Model and <0.9 by Highest Single Agent Model))
K562
  synergy, additivity or antagonism of the combination of Example 3 with the anti-cancer drug: + (Additive relative to each agent alone (CI = 0.9-1 by Bliss Independence Model and <0.9 by Highest Single Agent Model))
H23
  synergy, additivity or antagonism of the combination of Example 3 with the anti-cancer drug: + + (Slight synergy relative to each agent alone (CI = 0.75-0.9 by Bliss Independence Model))
Colo205
  synergy, additivity or antagonism of the combination of Example 3 with the anti-cancer drug: + + + (Synergy relative to each agent alone (CI = 0.4-0.74 by Bliss Independence Model))
